Here are results for nine compounds from patent US6410566B1, “Cyclic amine derivatives and their use as drugs” (Teijin Limited, priority 2000, dated 2002).

Assay [1] concerns the target T1, binding of human MIP-1α to THP-1 cells (Homo sapiens, UniProt P32246).
T1 construct: endogenous in cells; host or cells: THP-1 (human monocytic leukemia cell line), whole cells
T1 sequence (P32246 1-355): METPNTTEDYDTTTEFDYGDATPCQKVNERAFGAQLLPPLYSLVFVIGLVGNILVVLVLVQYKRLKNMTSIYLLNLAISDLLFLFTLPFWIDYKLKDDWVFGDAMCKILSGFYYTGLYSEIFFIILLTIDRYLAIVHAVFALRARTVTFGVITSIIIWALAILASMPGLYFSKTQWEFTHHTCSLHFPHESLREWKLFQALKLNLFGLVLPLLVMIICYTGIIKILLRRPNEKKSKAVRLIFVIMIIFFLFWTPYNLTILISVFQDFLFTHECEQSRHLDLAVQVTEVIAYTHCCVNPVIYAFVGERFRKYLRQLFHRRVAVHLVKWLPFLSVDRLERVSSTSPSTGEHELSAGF
Briefly: Inhibition of MIP-1α binding to THP-1 cells. As to the method:
Measurement of Inhibition of MIP-1α Binding to THP-1 Cells by Test Compounds
(§1) Human monocytic leukemia cell line THP-1 was suspended in assay buffer (RPMI-1640 (Gibco-BRL Co.) containing 0.1% BSA and 25 mM HEPES adjusted to pH 7.4) to give a cell suspension of a concentration of 1×10^7 cells/mL. The test compound was diluted in the assay buffer and used as the test compound solution. Iodinated human MIP-1α (DuPont NEN Co.) was diluted in assay buffer to 250 nCi/mL and used as the labeled ligand solution. In a 96 well filter plate (Millipore Co.), 25 μL of test compound solution, 25 μL of labeled ligand solution and 50 μL of cell suspension were aliquoted into each well in this order, stirred (total reaction volume 100 μL), and incubated for one hour at 18° C.
After the reaction, the reaction solution was filtered, and the filter was washed twice with 200 μL of cold PBS (200 μL of cold PBS was added and then filtered). The filter was air-dried and 25 μL of liquid scintillator was added into each well. The radioactivity retained by the cells on the filter were measured using TopCounit (Packard Instrument Co.).
To calculate the ability of test compounds to inhibit binding of human MIP-1α to THP-1 cells, non-specific binding determined by adding 100 ng of unlabeled human MIP-1α (Peprotech Co.) in place of the test compound was subtracted, while the counts with no test compound added was taken as 100%.
(§2) Inhibition (%)={1−(A−B)/(C−B)}×100
(A, counts with test compound added; B, counts with 100 ng of unlabeled human MIP-1α added; C, counts with [^125I]-labeled human MIP-1α added).

Assay [2] deals with T2, binding of human MCP-1 to THP-1 cells (Homo sapiens, UniProt P41597).
T2 construct: endogenous in cells; host or cells: THP-1 (human monocytic leukemia cell line), whole cells
T2 sequence (P41597 1-360 isoform P41597-2): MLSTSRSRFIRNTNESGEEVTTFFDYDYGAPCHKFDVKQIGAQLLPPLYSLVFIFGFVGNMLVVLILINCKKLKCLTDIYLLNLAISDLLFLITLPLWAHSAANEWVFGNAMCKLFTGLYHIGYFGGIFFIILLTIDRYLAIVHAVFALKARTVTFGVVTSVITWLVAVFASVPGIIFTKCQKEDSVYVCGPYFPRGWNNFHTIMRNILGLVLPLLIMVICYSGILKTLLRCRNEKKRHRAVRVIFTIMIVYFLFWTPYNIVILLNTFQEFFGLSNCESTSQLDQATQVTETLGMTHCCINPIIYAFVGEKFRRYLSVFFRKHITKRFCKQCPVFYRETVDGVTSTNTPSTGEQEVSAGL
The experiment in a line: Inhibition of binding of [125I]-labeled baculovirus expressed human MCP-1 to THP-1 cells (Method 1). Particulars: for inhibition at 100 µM: Method 1, at 100 μM. The source says: Measurement of Inhibition of MCP-1 Binding to THP-1 Cells 1. Construction of recombinant baculovirus carrying the human MCP-1 gene Based on the previously published human MCP-1 gene sequence (for example T. Yoshirnura et al., FEBS Lett., 1989, 244, 487-493), two synthetic DNA primers ([NT] and [NT]) flanked by restriction enzyme sites were used to amplify a DNA fragment from cDNA derived from human endothelial cells (purchased from Kurabow Co.); the amplified fragment was cut with the restriction enzymes (PstI and XbaI), ligated into a transfer vector pVL1393 (Invitrogen Co.), and the resulting vector was co-transfected along with infectious baculovirus into Sf-9 insect cells and the supernatant was plaque assayed to yield human MCP-1 gene baculovirus recombinant. […] Using the method of K. Ishii et al. […] The culture supernatant was affinity purified using a heparin Sepharose column (Pharmacia Co.) and then further purified using reverse phase HPLC (Vydac C18 column) to prepare purified human MCP-1. […] 3-1. […] The test. compound was diluted in the assay buffer and used as the test compound solution. [^125I]-labeled human MCP-1 described above was diluted in assay buffer to 1 mCi/mL and used as the labeled ligand solution. In a 96 well filter plate (Millipore Co.), 25 μL of test compound solution, 25 μL of labeled ligand solution and 50 μL of cell suspension were aliquoted into each well in this order, stirred (total reaction volume 100 μL), and incubated for one hour at 18° C. After the reaction, the reaction solution was filtered, and the filter was washed twice with 200 μL of cold PBS (200 μL of cold PBS was added and then filtered). The filter was air-dried and 25 μL of liquid sciatillator was added into each well. The radioactivity retained by the cells on the filter were measured using TopCount (Packard Instrument Co.). To calculate the ability of test compound to inhibit binding of human MCP-1 to THP-1 cells, non-specific binding determined by adding 100 ng of unlabeled human MCP-1 in place of the test compound was subtracted, while the counts with no test compound added was taken as 100%. Inhibition (%)=(1-(A-B)/(C-B))×100 (A, counts with test compound added; B, counts with 100 ng of unlabeled human MCP-1 added; C, counts with [^125I]-labeled human MCP-1 added).

Assay [3] addresses T2, binding of human MCP-1 to THP-1 cells. The experiment in a line: Inhibition of binding of [125I]-labeled baculovirus expressed human MCP-1 to THP-1 cells (Method 2). Particulars: for inhibition at 1 µM: Method 2, at 1 μM.
Source text: 1. Construction of recombinant baculovirus carrying the human MCP-1 gene
Based on the previously published human MCP-1 gene sequence (for example T. Yoshirnura et al., FEBS Lett., 1989, 244, 487-493), two synthetic DNA primers (5′-[…]-3′ and 5′-[…]-3′) flanked by restriction enzyme sites were used to amplify a DNA fragment from cDNA derived from human endothelial cells (purchased from Kurabow Co.); the amplified fragment was cut with the restriction enzymes (PstI and XbaI), ligated into a transfer vector pVL1393 (Invitrogen Co.), and the resulting vector was co-transfected along with infectious baculovirus into Sf-9 insect cells and the supernatant was plaque assayed to yield human MCP-1 gene baculovirus recombinant.
2. Synthesis of [^125I]-labeled human MCP-1 expressed in baculovirus
Using the method of K. Ishii et al. (Biochem Biophys Research Communications, 1995, 206, 955-961), 5×10^6 Sf-6 insect cells was infected with 5×10^7 PFU (plaque forming units) of the above human MCP-1 recombinant baculovirus and cultured for 7 days in Ex-Cell 401 medium. The culture supernatant was affinity purified using a heparin Sepharose column (Pharmacia Co.) and then further purified using reverse phase HPLC (Vydac C18 column) to prepare purified human MCP-1. The purified human MCP-1 was protein labeled by Amersham Co. using the Bolton Hunter method to yield [^125I]-labeled baculovirus expressed human MCP-1 (specific activity 2000 Ci/mmol).
3-2. Measurement of inhibition of binding of [^125I]-labeled baculovirus expressed human MCP-1 to THP-1 cells (Method 2)
as §1, with “(50” for “(RPMI-1640 (Gibco-BRL Co.) containing 0.1% BSA and 25”, “HEPES,” for “HEPES adjusted to”, “7.4, 1.0 mM CaCl2, 5.0% mM MgCl2, 0.5% BSA)” for “7.4)”, “[^125I]-labeled” for “Iodinated”, “MCP-1 described above” for “MIP-1α (DuPont NEN Co.)”, “1 mCi/mL” for “250 nCi/mL”
After the reaction, the reaction solution was filtered, and the filter was washed twice with 200 μL of cold PBS (200 μL of cold PBS was added and then filtered). The filter was air-dried and 25 μL of liquid scintillator was added into each well. The radioactivity retained by the cells on the filter were measured using TopCount (Packard Instrument Co.).
To calculate the ability of test compound to inhibit binding of human MCP-1 to THP-1 cells, non-specific binding determined by adding 100 ng of unlabeled human MCP-1 in place of the test compound was subtracted, while the counts with no test compound added was taken as 100%.
as §2
(A, counts with test compound added; B, counts with 100 ng of unlabeled human MCP-1 added; C, counts with [^125I]-labeled human MCP-1 added).

The next assay concerns THP-1 cells. The experiment in a line: Inhibition of cell chemotaxis caused by MCP-1. Particulars: Homo sapiens, MCP-1 20 ng/mL, read-out: inhibition of cell migration IC50. The class given is cell-based. The procedure: Measurement of Inhibition of Cell Chemotaxis
In order to determine the inhibition of cell chemotaxis by the compounds of this invention, we measured cell chemotaxis caused by monocyte chemotactic factor MCP-1 using the human monocytic leukemia cell line THP-1 as the chemotactic cell according to the method of Fall et al. (J. Immunol. Methods, 190, 33,239-247). 2×10^6 cells/mL of THP-1 cells (suspended in RPMI-1640 (Flow Laboratories Co.)+10% FCS) was placed in the upper chamber (200 μL) of a 96 well micro-chemotaxis chamber (Neuroprobe; registered tradename), and human recombinant MCP-1 in a same solution (Peprotech Co.) at a final concentration of 20 ng/mL was placed in the lower chamber, with a polycarbonate filter (PVP-free, Neuroprobe; registered tradename) placed between the two chambers. These were incubated at 37° C. for 2 hr in 5% CO2.
The filter was removed, and the cells which had migrated to the underside of the filter was fixed, stained using Diff Quick (Kokusai Shiyaku Co.) and then quantitated using a plate reader (Molecular Device Co.) at a wavelength of 550 nm to determine the index of cell migration as a mean of 3 wells. In addition, test compounds were placed in the upper and lower chambers along with THP-1 and MCP-1, respectively, and the inhibition of cell migration (inhibition IC50 (μM)) was determined.

Some results are limits rather than exact numbers.

As usually defined, the inhibition is how much of the control response was suppressed. Lower therefore signals little suppression. `CC(C)c1ccc(S(=O)(=O)NCC(=O)NCC2CCN(Cc3ccc(Cl)cc3)CC2)cc1` [Compound No. 869, 1-(4-Chlorobenzyl)-4-[{N-(4-isopropylphenylsulfonyl)glycyl}aminomethyl]piperidine]: the inhibition at 10 µM in assay [1] is over 80%. This compound also showed an inhibition at 100 µM in assay [2] of 20 to 50%.

The compound `O=C(CNC(=O)c1ccccc1)NCC1CCN(Cc2ccc(Cl)cc2)CC1` [Compound No. 458, 4-{(N-Benzoylglycyl)amino}methyl-1-(4-chlorobenzyl)piperidine] registered an inhibition at 10 µM in assay [1] of 50 to 80%. The compound also came in with an inhibition at 100 µM in assay [2] of over 80%.

With `Nc1ccc(Br)cc1C(=O)NCC(=O)NCC1CCN(Cc2ccc(Cl)cc2)CC1` [Compound No. 1042, 4-{N-(2-amino-5-bromobenzoyl)glycyl}aminomethyl-1-(4-chlorobenzyl)piperidine], in assay [1], the inhibition at 2 µM lay in the range of 20 to 50% and the inhibition at 10 µM fell in the range of 50 to 80%. Besides, in assay [3], the inhibition at 1 µM was over 80%. For the same compound, in assay [3] (Method 2, at 10 μM), the inhibition at 10 µM was over 80%. For the same compound, the IC50 in the assay with THP-1 cells is under 0.1 µM.

As to `CN(CC1CCN(Cc2ccc(Cl)cc2)CC1)C(=O)CNC(=O)c1cccc(C(F)(F)F)c1` [Compound No. 520, 1-(4-chlorobenzyl)-4-[N-methyl-N-{N-(3-(trifluoromethyl)benzoyl)glycyl}aminomethyl]piperidine], the inhibition at 10 µM in assay [1] lay within 50 to 80%; in assay [2] (Method 1, at 10 μM), 50 to 80%.

As for `CC(C)[C@H](NC(=O)c1cccc(C#N)c1)C(=O)NCC1CCN(Cc2ccc(Cl)cc2)CC1` [Compound No. 619, 1-(4-Chlorobenzyl)-4-[{N-(3-cyanobenzoyl)valyl}aminomethyl]piperidine], the inhibition at 10 µM in assay [1] was 50 to 80%.

The compound `O=C(NCC(=O)N(CC1CCN(Cc2ccc(Cl)cc2)CC1)CC(c1ccccc1)c1ccccc1)c1ccccc1` [Compound No. 524, 4-{N-(N-Benzoylglycyl)-N-(2,2-diphenylethyl)aminomethyl}-1-(4-chlorobenzyl)piperidine] came in with an inhibition at 10 µM in assay [1] of 20 to 50%.

In assay [1], `O=C(CNC(=O)c1cccc(C(F)(F)F)c1)NCC1CCN(Cc2ccc(Cl)cc2)CC1` [Compound No. 461, 1-(4-chlorobenzyl)-4-[{N-(3-(trifluoromethyl)benzoyl)glycyl}aminomethyl]piperidine] returned an inhibition at 10 µM of over 80%. For the same compound, the IC50 in the assay on THP-1 cells was under 0.1 µM.

Regarding `O=C(CNC(=O)c1ccccc1)NC1CCN(Cc2ccc(Cl)cc2)C1` (centres unmarked) [compound 1, 3-(N-Benzoylglycyl)amino-1-(4-chlorobenzyl)pyrrolidine], in assay [1], the inhibition at 10 µM lay in the range of 50 to 80%. The inhibition at 100 µM in assay [2] was 50 to 80%.

The compound `Nc1cc(Cl)ccc1CN1CCC(CNC(=O)CNC(=O)c2cc(C(F)(F)F)ccc2N)CC1` [Compound No. 1919, 4-[{N-(2-Amino-5-trifluoromethylbenzoyl)glycyl}aminomethyl]-1-(2-amino-4-chlorobenzyl)piperidine] yielded an inhibition at 2 µM in assay [1] of 20 to 50%. The inhibition at 1 µM in assay [3] is over 80%. Also, the IC50 with THP-1 cells is under 0.1 µM.
